Reference: US20030180345A1, “Compositions and methods for inhibiting islet dysfunction and autoimmune disorders” (priority 2000, published 2003)

What was measured:
fetal islet β cells = assay: SNP-induced apoptosis in cultured fetal islets (TUNEL, confocal microscopy); type: cell-based, Wistar rats; settings: for in vitro apoptotic rate: absence of SNP
Procedure: Animals and Diets. Adult virgin female Wistar rats were caged overnight with males and copulation was verified the next morning. Animals were maintained at 25° C. with a 10 h-14 h dark-light cycle. Pregnant rats were divided into two groups and fed one of the following isocaloric diets: either a control diet (C) containing 20% protein or a low protein diet (LP) containing 8% protein. The composition of the diet was as described previously by Snoeck et al. 1990 (Biol. Neonate 57, 107-118). The diets were purchased from Hope Farms (Woerden, Holland). Animals in both the groups had free access to water at all times. At 21.5 days of gestation, females were sacrificed by decapitation and fetuses removed.
Islet culture and treatment. Fetal islets were isolated as described by Mourmeaux et al. 1985 (Molecular and Cellular Endocrinology 39:237-246). Islets were cultured in 35 mm Petri-dishes (Falcon plastics, Los Angeles, Calif.) in RPMI 1640 medium (Gibco, Grand Island, N.Y., USA) with 10% Fetal Bovine Serum and antibiotics (penicillin 200 U/ml, streptomycin 0.2 mg/ml). Petri dishes were incubated at 37° C. with 5% CO2 in air. The culture medium was changed daily after the second day. On the 5th day of culture, islets were rinsed twice with serum free DME/F12 medium (1:1, v/v, Gibco, Paisley, Scotland) and subsequently incubated for 42 hours in this medium. […]
TUNEL method for evaluating apoptosis. Apoptosis was evaluated by the TUNEL method described herein, and visualized with confocal microscopy. Cultured islets were fixed in methanol and stored at −20° C. until analysis. The tissue was then washed with phosphate buffered saline (PBS) for 3 min, and a terminal deoxynucleotidyl transferase (TdT) reaction buffer (50 μl) was added. The 50 μl of TdT solution was prepared using 10 μl of 5× concentrated buffer solution (1 mol/l potassium cacodylate; 125 mmol/l Tris-HCl, pH 6.6; 1.26 mg bovine serum albumin). Cobalt chloride (5 μl of 25 mmol/l), 0.5 μl (12.5 units) of TdT (both from Boehringer Mannheim, Germany), and 0.25 nmoles of BODIPY-FL-X-14-dUTP (Molecular Probes, Eugene, Oreg. USA) were added, along with distilled water, up to 50 μl. Islets were incubated in Petri dishes with the TdT reaction buffer for 60 min at 37° C., then rinsed twice with 15 mmol/l EDTA (pH 8.0) in PBS and once with 0.1% Triton X-100 in PBS. Then, 2 ml of PBS containing 2.5 μg/ml of propidium iodide (Molecular Probes, Eugene, Oreg. USA) was added to the dishes for 5 min. Finally, islet cells were washed with 15 mmol/l EDTA (pH 8.0). Islet cells were then double-labelled for apoptotic nuclei, showing the BODIPY-FL-dUTP label in […] and total nuclei with propidium iodide in red.
Confocal microscopy. Staining probes were visualised through a confocal laser scanning microscopy system (MRC-1024 UV; BIO-RAD, UK) equipped with Argon ion and Krypton/Argon ion lasers. BODIPY-FL was excited at 503 nm, ethidium bromide at 510 nm, propidium iodide at 536 nm and Hoechst 33342 at 346 nm. The emissions were recorded respectively at 522/32 nm, 605/32 nm and 455/30 nm. Four to six optical sections were collected at every 15 μm through the islet. The number of BODIPY-FL-positive or ethidium bromide-positive nuclei were reported and expressed as a percentage of the total number of nuclei.
Animals, diets, and fetal islet isolation procedures were conducted as described in Example 1.

IGF-II = assay: Islet IGF-II immunoreactivity with dietary taurine supplementation; type: in vivo, Wistar rats; settings: LP diet with taurine
Procedure: Animals and diets were prepared as described in Example 7. The pancreas was removed, and IGF-II immunoreactivity was evaluated according to a method described by […] et al., (Endocrinology 1999;140: 4861-4873). Expression of IGF-II, considered a survival factor for cells, was measured as an indicator of the overall health of the β cells.

fetal islet cells = assay: In vitro fetal islet cell proliferation (BrdU incorporation); type: cell-based, Wistar rats; settings: LP islets; taurine 1.25 or 2.5 mmol/l in culture media
Procedure: Animals and diets were as described in Example 1. Fetuses were removed at fetal day 21.5, and fetal islet cells were isolated and treated as described in Example 1. Taurine was added to incubation medium at levels of either 0 mmol/l, 1.25 mmol/l or 2.5 mmol/l. Proliferation was evaluated using bromodeoxyuridine (BrdU) incorporation into DNA.

NOD mice = assay: Insulitis in NOD mice at 12 weeks after taurine in maternal drinking water (pregnancy and lactation); type: in vivo; settings: for reduction of incidence of insulitis: 12 weeks of age, vs control animals
From the text: Pregnant NOD mice were maintained on a control diet either with or without taurine supplementation in the drinking water throughout pregnancy and lactation. Supplementation of taurine was stopped after weaning. At 12 weeks of age the animals were killed and examined for histological evidence of insulitis within the pancreatic islets. Mice which were examined and found to have evidence of insulitis, were then further scored as peri-islet (slight), less than 50% area of islet (medium) or more than 50% islet area (heavy), as indicative of the stage and/or severity of insulitis.

fetal pancreas = assay: Fetal pancreatic vascularization with taurine supplementation; type: in vivo, Wistar rats; settings: LP diet + taurine in drinking water; fetal day 21.5
Procedure: Animals and diets were as described above in Example 1. The fetal pancreas was removed at day 21.5. Vascular density, expressed as a percent of area, and number of blood vessels per unit area were evaluated.

[1] = 3 mmol/l taurine; SIN-1
Procedure: Chemiluminescence measurements. Luminol (5-amino-2,3-dihydro-1-4-phtalazinedione) at 400 μmol/l (Sigma Chemical Co.), taurine (0.3 or 3 mmol/l), methionine (0.1 or 1 mmol/l) and β-alanine (0.3 or 3 mmol/l) stock solutions were prepared in PBS. Sydnonimine (SIN-1), also known as 3-morpholinosydnonimine, a source of peroxynitrite, was purchased from Sigma Chemical Co. SIN-1 was prepared as 100 μmol in 1 mol/l NaOH. A reaction was initiated by simultaneous injection of luminol and SIN-1 into wells containing PBS either alone or with supplemental amino acid levels as noted above. Chemiluminescence emitted by luminol in the presence of peroxynitrite was measured every 30 seconds over 20 minutes in a chemifluorophotometer (MicroLumat LB96P, EG&G BERTHOLD), and was quantified as light intensity (10^8 RLU).
Nitric oxide is a reactive free radical which leads to peroxynitrite formation, another reactive free radical, by interaction with superoxide (NO+OO^−→ONOO^−). […] Luminol-derived chemiluminescence induced by peroxynitrite produced by the decomposition of sydnonimine (SIN-1) was evaluated to investigate the possibility that taurine quenched the peroxynitrite formed from NO.

NCCS(=O)(=O)O [taurine, 2-aminoethylsulfonic acid]
reduction of SNP-induced apoptosis (fetal islet β cells; 0.3 mmol/l taurine, SNP 100 μmol/l, LP islets): 60%
reduction of SNP-induced apoptosis (fetal islet β cells; 0.3 mmol/l taurine, SNP 100 μmol/l, control islets): 30%
in vitro apoptotic rate (fetal islet β cells; control diet (C) islets, 0.3 mmol/l taurine): 1.5±0.2%
in vitro apoptotic rate (fetal islet β cells; control diet (C) islets, 3 mmol/l taurine): 1.4±0.3%
in vitro apoptotic rate (fetal islet β cells; low protein diet (LP) islets, 0.3 mmol/l taurine): 2.1±0.3%
in vitro apoptotic rate (fetal islet β cells; low protein diet (LP) islets, 3 mmol/l taurine): 2.1±0.4%
percentage of β cells positive for apoptosis (fetal islet β cells; taurine 0.3 or 3 mmol/l, SNP 100 μmol/l, both diet groups): significantly decreased
IGF-II immunoreactivity (IGF-II; fetal period (F21.5)): increased IGF-II immunoreactivity to a level consistent with the C diet animals
IGF-II immunoreactivity (IGF-II; post-natal): restored IGF-II immunoreactivity levels to the point that the control IGF-II level was surpassed
in vitro islet cell proliferation rate (BrdU) (fetal islet cells): increased LP islet cell proliferation rate to the levels observed in C islets having no taurine addition
proportion of individual islets showing no incidence of insulitis (NOD mice; female animals exhibiting insulitis, C+Taurine (65% in control diet group)): approximately 50%
severity of insulitis when it occurs (NOD mice; female mice exhibiting insulitis, 12 weeks): not lessened
reduction of incidence of insulitis (NOD mice; female mice): 80%
reduction of incidence of insulitis (NOD mice; male mice): 60%
blood vessel numbers per unit area (fetal pancreas): restoring both vascularization parameters to the level of the control groups
vascular density (percent of area) (fetal pancreas): restoring both vascularization parameters to the level of the control groups
luminol chemiluminescence (peroxynitrite quenching) [1]: dramatically decreased
